# Experimental data taken from patent US11660319B2, “Compositions comprising bacterial strains” (priority 2017, dated 2023).
# Assays:
# [1] = tested on: HT29-mtx epithelial, mucin-producing cell monolayers; experiment: IL-8 secretion of HT29-mtx monolayers; assay type: cell-based; conditions: bacterial supernatants 24 h; compared to untreated and YCFA-treated cells
# Text: HT29-mtx epithelial, mucin-producing cell monolayers were used as an in vitro model to evaluate gut barrier disruption and immune stimulation following treatment with MRx0005 and MRx0029.
# [2] = tested on: SHSY5Y; experiment: Neurite outgrowth: microscopy and MAP2 gene expression (qPCR); assay type: cell-based, human
# Procedure: SHSY5Y were plated in 10 cm petri dishes a density of 2×10^6 cells. After 24 h cells were treated in differentiation medium (growth medium containing 1% FBS without RA) with 10% bacteria supernatants or YCFA+, 10 uM RA, 200 uM hexanoic acid or 200 uM valproic acid, for 17 hrs. There after representative images were taken using phase contrast EVOS XL core microscope at 40×/0.65 magnification. Cells were collected, and total RNA was isolated according to RNeasy mini kit protocol (Qiagen). cDNAs were made using the high capacity cDNA reverse transcription kit (Applied Biosystems). Gene expression was measured using qPCR. GAPDH was used as internal control. Fold change was calculated according to the 2^(−ΔΔct) method.
# Cells were seeded onto 8 well chamber slides (Marienfeld Laboratory Glassware) at 5×10^4 cells/well overnight and were treated with 10% bacterial supernatant for 24 hrs. For differentiation, cells were treated with 10 nM Retinoic acid for 5 days before treating with bacterial supernatant. Cells were then fixed with 4% paraformaldehyde in PBS for 20 minutes at room temperature (RT). Fixed cells were washed with PBS, and permeabilized with 1% Triton X-100 in PBS for 10 minutes. After washing with PBS, the slides were incubated with blocking buffer (4% BSA/PBS) for 1 hr at RT before adding anti-MAP2 antibody (sc-74421, Santa Cruz Biotechnology Inc) diluted in 1% BSA/PBS for 12 hr at 4° C. They were then washed twice with PBS, followed by incubation with Alexa Flour 488 conjugated anti-mouse (Molecular Probes Inc) and Alexa Flour 594 conjugated Phalloidin (ab 176757, Abcam) for 1 hr at RT. After washing 3× with PBS, the slides were mounted with Vectorshield[…] containing DAPI (Sigma, Aldrich). Slides were viewed using a Zeiss Axioscope microscope equipped with a 63×/1.2 W Korr objective and filter sets suitable for detection of the fluorochromes used. Manual exposure times for the digital acquisition of images immuno-labelled with MAP-2 were kept constant allowing comparison between different wells and treatments. Phalloidin (F-actin) and DAPI exposure times varied to suit the field of view. Randomised fields of view were acquired using a QImaging camera controlled by Image Pro Plus software. Images were saved as TIFs and opened in Adobe Photoshop CC 2015.1.2 and overlays of the MAP-2, DAPI and Phalloidion images overlaid and merged. Representative images were selected to illustrate the differences in abundance and location of the proteins examined
# [3] = ABTS antioxidant capacity assay of bacterial cell lysate; conditions: compared to Trolox
# Procedure: Bacterial cells (10^6 or greater) were collected and centrifuged. They were resuspended in assay buffer (using three times the pellet volume). The suspension was sonicated on ice for 5 minutes and then spun down at 12,000×g for 10 minutes. The supernatant was removed and measured using the ABTS assay kit produced by Sigma Aldrich (code CS0790), in accordance with manufacturer's instructions.
# [4] = tested on: differentiated neuroblasoma cells; experiment: BDNF secretion in SHSY-5Y cells; assay type: cell-based, human; conditions: in combination with retinoic acid (10 μM, differentiation); 50 μl bacteria SN
# Procedure: SH-SY5-SY were plated in 24 wells plate at density of 60,000 cells/well and placed in the incubator. After 24 h, media were replaced with differentiation medium (growth medium containing 1% FBS) and 10 μM retinoic acid. Differentiation medium was replaced every other day and cells were used on day 10 of differentiation. For the treatment differentiation medium was removed and replaced with 450 ul of full growth media and 50 μl of bacteria SN was added to the treated wells or YCFA+ was added as negative Control.
# [5] = tested on: co-culture of human glioblastoma astrocytoma cells and neuroblastoma cells; experiment: α-synuclein-induced IL-6 secretion in co-culture; assay type: cell-based; conditions: 25 μg/ml α-synuclein (Wt, A53T, E46K), 10% bacteria supernatant, 48 hrs
# Procedure: SHSY5Y cells were plated on 12 well plates at a density of 50,000 cells/well. The cells were grown in 50% MEM and 50% Nutrient Mixture F-12 Ham media supplemented with 2 mM L-Glutamine, 10% heat inactivated FBS, 100 U/ml penicillin, 100 μg/ml streptomycin. Cells on growth medium were plated on 96-well plate at 11,000 cells/well and placed in the incubator. After 2 days, media were replaced with differentiation medium (growth medium containing 1% FBS) and 10 μM retinoic acid. Differentiation medium was replaced every other day and cells were used after 7 days of differentiation. U373 were plated on 12 transwell plates (0.4 μm polyester membrane, Costar) at a density of 50,000 cells/well for 72 hrs. Cells were co-cultured together for 24 hrs before treatment in differentiation medium (growth medium containing 1% FBS without retinoic acid).
# Thereafter cells were treated with 25 μg/ml α-synuclein (Wt, A53T, E46K) in the presence or absence of 10% bacteria supernatant for 48 hrs. Cell free Supernatants were collected, spun-down at 10000 g for 3 min at 4° C., aliquoted and stored at −80° C. Human IL-6 and IL-8 were measured as described above.
# [6] = tested on: class II HDACs; experiment: Specific HDAC activity analysis (fluorogenic assay kit, BPS Bioscience); assay type: biochemical; conditions: data not shown
# Procedure: Specific HDAC inhibition activity was analysed for HDAC1, 2, 3, 4, 5, 6, 9 using fluorogenic assay kits for each type of HDAC (BPS Bioscience, CA). Assays were conducted according to manufacturer's instructions and each sample were performed in replicates. Cell free supernatants were diluted 1 in 10 and exposed to specific HDAC proteins provided in the kit to maintain consistency between methods.
# The specific HDAC inhibition profile of the test bacteria strain was investigated. Specific HDAC inhibition assays (BPS Bioscience, CA) were carried out for Class I and Class II HDACs. The ability of the bacterial strain to inhibit HDAC enzymes was compared to butyrate, hexanoic and valeric acid (FIGS. 14 and 15).
# [7] = tested on: histone deacetylase; experiment: Histone deacetylase activity in HT-29 cells (fluorometric kit); assay type: cell-based; conditions: 10% cell free supernatant, 48 hours
# Procedure: Cell free supernatants of stationary phase bacterial cultures were isolated by centrifugation and filtering in a 0.22 uM filter. HT-29 cells were used 3 days' post confluence and stepped down in 1 mL DTS 24 hours prior to commencement of the experiment. The HT-29 cells were challenged with 10% cell free supernatant diluted in DTS and this was left to incubate for 48 hours. […] extraction kit and samples were snap frozen prior to HDAC activity measurement. HDAC activity kit was assessed fluorometrically using the Sigma Aldrich (UK) kit.
substance,measurement,setting,value
Megasphaera massiliensis [MRx0029],secretion of IL-8,[1],even lower secretion
same,neurite outgrowth / neuron-like phenotype,"[2]; undifferentiated SHSY-5Y cells, 10% bacteria supernatant, 200 uM hexanoic acid or 200 uM valproic acid, 17 hrs",induced a neuron-like phenotype
same,MAP2 expression,"[2]; undifferentiated neuroblastoma cells, qPCR, GAPDH internal control",significantly upregulates
same,antioxidant capacity,[3],approximately 2 mM
same,secretion of BDNF,[4],increases
same,α-syn-induced secretion of IL-6,[5],greatest
same,Inhibition of class II HDACs,[6],not as significant
same,levels of histone deacetylase activity,[7],reduce
